From patent US20100273831A1, “FLUORO ALKYL SUBSTITUTED BENZIMIDAZOLE CANNABINOID AGONISTS” (priority 2007, published 2010)

Assays:
[1] = molecular target: T1, human CB2 (hCB2) receptor (Homo sapiens, UniProt P34972); test: Inhibition of forskolin-activated cAMP production upon activation of human CB2 receptor (HTRF assay, CHO-K1 cells); format: cell-based; conditions: agonism; CHO-K1 cells stably transfected with hCB2; pEC50=-log(EC50); relative to WIN55212-2; read-out: CB-2 pEC50 (converted)
T1 construct: expressed in transfected cells; host or cells: CHO-K1
T1 sequence (P34972 whole entry): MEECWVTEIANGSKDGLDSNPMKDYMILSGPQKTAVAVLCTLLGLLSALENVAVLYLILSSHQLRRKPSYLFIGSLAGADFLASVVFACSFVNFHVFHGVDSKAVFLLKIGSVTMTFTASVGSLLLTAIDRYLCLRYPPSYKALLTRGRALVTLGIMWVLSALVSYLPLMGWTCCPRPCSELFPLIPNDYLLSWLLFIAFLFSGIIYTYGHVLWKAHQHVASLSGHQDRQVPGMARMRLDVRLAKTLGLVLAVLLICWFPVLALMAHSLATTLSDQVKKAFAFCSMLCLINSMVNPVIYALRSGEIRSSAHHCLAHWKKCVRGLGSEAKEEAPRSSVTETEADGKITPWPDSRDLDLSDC
Protocol: (§1) Functional activity of the test compounds was assessed by measuring their potency to inhibit forskolin-activated cAMP production upon activation of the human CB1 (hCB1) or human CB2 (hCB2) receptor through homogenous time resolved fluorescence (HTRF) assays.
(§2) CHO-K1 cells stably transfected with either hCB1 or hCB2 were grown up to 80-90% confluence in T175 Falcon flasks in DMEM/NUT MIX F-12 culture medium complemented with 2% Solution A (5.10^6 IU/1 penicillin G, 5 g/l streptomycin sulphate, 5.5 g/l pyruvate, 14.6 g/l L-glutamine, 1M NaOH) and 10% foetal calf serum. Before the experiments, medium was removed, cells were washed with PBS/EDTA (140 mM NaCl, 1 mM Na2-EDTA, 8 mM Na2HPO4.2H2O, 8.5 mM KH2PO4, 2.7 mM KCl, 21 mM glucose), resuspended in stimulation buffer (HBSS 1×, IBMX 1 mM, Hepes 5 mM, MgCl2 10 mM, BSA 0.1%, pH 7.4). Cells were diluted to a concentration of 8.10^5 cell/ml for hCB1 experiments and 10^6 cells/ml for hCB2 experiments. Assays were performed using the cAMP Dynamic HTRF kit (CIS bio international, France) according to the recommendations of the manufacturer.
For CB2, each well of a 384 flat bottom black polystyrene assay plate (Costar) was filled with 10 μl stimulation buffer containing 15 μM forskolin and either test compound (in 3% DMSO), 3% DMSO or 10 μM Win55212-2 (in 3% DMSO). Then, 20 μl of the diluted hCB2-CHO-K1 cells was added (20,000 cells/well). After 30 minutes incubation in dark at room temperature, 10 μl cAMP-XL665 and 10 μl anti-cAMP cryptate (both at a final dilution of 1/100) was added to the cells.
(§3) After equilibration of the reaction mixtures for 1 to 24 hours in dark at room temperature, fluorescence was measured at 665 nm and 620 nm using a Discovery microplate fluorescence counter (Perkin Elmer), and the signal ratio of 665 nm/620 nm was calculated. The signal ratios of the test compounds were expressed relative to the signal ratios of the DMSO control (maximal signal ratio, no inhibition of cAMP) and CP55490 or WIN55212-2 for hCB1 and hCB2, respectively (minimal signal ratio, maximal inhibition of cAMP). From the dose response curves generated for each test compound, the dose at which 50% of the maximal inhibition of cAMP level is observed (EC50, expressed in the Tables as pEC50=−log(EC50) values) and the level of inhibition reached with 10 μM of the test compound compared to CP55490 (for hCB1) or WIN55212-2 (for hCB2) was calculated.

[2] = molecular target: T2, human CB1 (hCB1) receptor (Homo sapiens, UniProt P21554); test: Inhibition of forskolin-activated cAMP production upon activation of human CB1 receptor (HTRF assay, CHO-K1 cells); format: cell-based; conditions: agonism; CHO-K1 cells stably transfected with hCB1; pEC50=-log(EC50); relative to CP55490; read-out: CB-1 pEC50 (converted)
T2 construct: expressed in transfected cells; host or cells: CHO-K1
T2 sequence (P21554 whole entry): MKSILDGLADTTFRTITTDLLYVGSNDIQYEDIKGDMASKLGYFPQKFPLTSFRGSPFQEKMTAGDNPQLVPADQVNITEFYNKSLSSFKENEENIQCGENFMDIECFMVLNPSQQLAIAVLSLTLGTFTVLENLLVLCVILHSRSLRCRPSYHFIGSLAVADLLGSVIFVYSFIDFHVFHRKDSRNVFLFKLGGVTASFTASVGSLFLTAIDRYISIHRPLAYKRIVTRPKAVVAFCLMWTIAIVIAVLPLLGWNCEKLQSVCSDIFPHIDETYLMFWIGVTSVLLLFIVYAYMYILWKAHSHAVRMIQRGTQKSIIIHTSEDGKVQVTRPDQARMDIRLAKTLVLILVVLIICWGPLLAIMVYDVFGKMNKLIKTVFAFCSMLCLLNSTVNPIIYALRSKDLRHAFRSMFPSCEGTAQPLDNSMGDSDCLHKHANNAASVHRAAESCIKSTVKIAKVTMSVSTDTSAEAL
Protocol: as §1, §2
For CB1, each well of a 96 flat bottom black polystyrene assay plate (Costar) was filled with 25 μl stimulation buffer containing 6 μM forskolin and either test compound (in 2% DMSO), 2% DMSO or 2 μM CP55490 (in 2% DMSO). Then, 25 μl of the diluted cells was added (20,000 cells/well). After 30 minutes incubation in dark at room temperature, 25 μl cAMP-XL665 and 25 μl anti-cAMP cryptate (both at a final dilution of 1/80) was added to the cells.
as §3

CC(C)(C)c1nc2cc(S(=O)(=O)c3ccc(C#N)cc3)ccc2n1CCCC(F)(F)F
melting point: 165.1 °C

CC(C)(C)c1nc2cc(Sc3ccc(C#N)cc3)ccc2n1CCCC(F)(F)F [compound 9]
EC50 [1]: 1 nM
EC50 [2]: 25.1 nM

COc1ccc(CSc2ccc3c(c2)nc(C(C)(C)C)n3CCCC(F)(F)F)cc1
melting point: 143.2 °C

CC(C)(C)c1nc2cc(S(=O)(=O)c3ccc(C(N)=O)cc3)ccc2n1CCCC(F)(F)F [compound 18]
EC50 [1]: 3.16 nM
EC50 [2]: 2000 nM

CC(C)(C)c1nc2cc(S(=O)(=O)Cc3ccc(C#N)cc3)ccc2n1CCCCC(F)(F)F
melting point: 177.4 °C

CC(C)(C)c1nc2cc(S(=O)(=O)C3CCNC3=O)ccc2n1CCCC(F)(F)F (stereo not drawn)
melting point: 208.7 °C

CC(C)(C)c1nc2cc(S(=O)(=O)c3ccncc3)ccc2n1CCCC(F)(F)F [compound 4]
EC50 [1]: 0.398 nM
EC50 [2]: 2510 nM

CC(C)(C)c1nc2cc(S(=O)(=O)c3ccc(C#N)cc3)ccc2n1CCCC(F)(F)F [compound 6]
EC50 [1]: 0.398 nM
EC50 [2]: 79.4 nM

CC(C)(C)c1nc2cc(S(=O)(=O)c3ccc(C#N)cc3)ccc2n1CCCCC(F)(F)F [compound 12]
EC50 [1]: 1 nM
melting point: 180.1 °C
EC50 [2]: 25.1 nM

CC(C)(C)c1nc2cc(S(=O)(=O)CC3CC3)ccc2n1CCCCC(F)(F)F [compound 11]
EC50 [1]: 1.58 nM
EC50 [2]: 31.6 nM

CC(C)(C)c1nc2cc(SCC3CC3)ccc2n1CCCCC(F)(F)F [compound 14]
EC50 [1]: 2 nM
EC50 [2]: 10 nM

CC(C)(C)c1nc2cc(S(=O)(=O)c3ccncc3)ccc2n1CCCCC(F)(F)F [compound 13]
EC50 [1]: 1.58 nM
melting point: 147.6 °C
EC50 [2]: 200 nM

CC(C)(C)c1nc2cc([S+]([O-])c3ccc(C#N)cc3)ccc2n1CCCC(F)(F)F (stereo not drawn) [compound 7]
EC50 [1]: 2.51 nM
EC50 [2]: > 10000 nM

CC(C)(C)c1nc2cc(S(=O)(=O)C3CCNC3=O)ccc2n1CCCCC(F)(F)F (stereo not drawn) [compound 23]
EC50 [1]: 5.01 nM
EC50 [2]: 1580 nM

CC(C)(C)c1nc2cc(Sc3cn[nH]c3)ccc2n1CCCC(F)(F)F [compound 8]
EC50 [1]: 0.631 nM
EC50 [2]: > 10000 nM

CC(C)(C)c1nc2cc(S(=O)(=O)C3CCNC3=O)ccc2n1CCCC(F)(F)F (stereo not drawn) [compound 16]
EC50 [1]: 2.51 nM
EC50 [2]: 3980 nM

CC(C)(C)c1nc2cc(S(=O)(=O)c3cn[nH]c3)ccc2n1CCCC(F)(F)F [compound 5]
EC50 [1]: 0.794 nM
melting point: 220.8 °C
EC50 [2]: 1260 nM

CC(C)(C)c1nc2cc(S(=O)(=O)CC3CC3)ccc2n1CCCC(F)(F)F [compound 3]
EC50 [1]: 1.26 nM
EC50 [2]: 316 nM

CC(C)(C)c1nc2cc(S(=O)(=O)c3ccc(C(N)=O)cc3)ccc2n1CCCC(F)(F)F
melting point: 207.8 °C

COc1ccc(CSc2ccc3c(c2)nc(C(C)(C)C)n3CCCC(F)(F)F)cc1 [compound 1]
EC50 [1]: 5.01 nM
EC50 [2]: > 10000 nM

CC(C)(C)c1nc2cc(S(=O)(=O)Cc3ccc(C#N)cc3)ccc2n1CCCCC(F)(F)F [compound 19]
EC50 [1]: 2 nM
EC50 [2]: > 10000 nM

CC(C)(C)c1nc2cc(S(=O)(=O)C(C)(C)c3ccc(C#N)cc3)ccc2n1CCCCC(F)(F)F [compound 20]
EC50 [1]: 1.58 nM
EC50 [2]: 2000 nM

COc1ccc(CSc2ccc3c(c2)nc(C(C)(C)C)n3CCCCC(F)(F)F)cc1 [compound 10]
EC50 [1]: 6.31 nM
EC50 [2]: > 10000 nM

CC(C)(C)c1nc2cc(S(=O)(=O)Cc3ccc(C(N)=O)cc3)ccc2n1CCCCC(F)(F)F [compound 22]
EC50 [1]: 2 nM
melting point: 222.8 °C
EC50 [2]: 79.4 nM

CC(C)(C)c1nc2cc(S(=O)(=O)C(C)(C)c3ccc(C#N)cc3)ccc2n1CCCCC(F)(F)F
melting point: 187.6 °C

CC(C)(C)c1nc2cc(S(=O)(=O)C(F)(F)c3ccc(C#N)cc3)ccc2n1CCCCC(F)(F)F [compound 21]
EC50 [1]: 3.16 nM
EC50 [2]: 79.4 nM

CC(C)(C)c1nc2cc(S(=O)(=O)c3ccncc3)ccc2n1CCCC(F)(F)F
melting point: 155.4 °C
